Laboratory results as given in ChEMBL document CHEMBL4425146, “Synthesis and biological evaluation of N(9)-substituted harmine derivatives as potential anticancer agents” (Bioorg Med Chem Lett, 2016).

Assays:
Format in all cases: functional, cell-based
[1] = system: MCF7; assay: Cytotoxicity against human MCF7 cells assessed as inhibition of cell growth after 48 hrs by MTT assay; details: MCF7, 48 h
[2] = system: SGC-7901; assay: Cytotoxicity against human SGC7901 cells assessed as inhibition of cell growth after 48 hrs by MTT assay; details: SGC-7901, 48 h
[3] = system: SMMC-7721; assay: Cytotoxicity against human SMMC7721 cells assessed as inhibition of cell growth after 48 hrs by MTT assay; details: SMMC-7721, 48 h
[4] = system: A549; assay: Cytotoxicity against human A549 cells assessed as inhibition of cell growth after 48 hrs by MTT assay; details: A549, 48 h
[5] = system: HeLa; assay: Cytotoxicity against human HeLa cells assessed as inhibition of cell growth by MTT assay
[6] = system: MCF7; assay: Cytotoxicity against human MCF7 cells assessed as inhibition of cell growth

SMILES	IC50 [1]	IC50 [2]	IC50 [3]	IC50 [4]	IC50 [5]	IC50 [6]
CCCCCCCCn1c2cc(OC)ccc2c2ccnc(C)c21	> 50 µM	6.68 µM	6.95 µM	4.77 µM		
COc1ccc2c3ccnc(C)c3n(Cc3ccccc3C)c2c1	> 50 µM	17.2 µM	39.5 µM	8.34 µM		
CCn1c2cc(OC)ccc2c2ccnc(C)c21	> 50 µM	29.6 µM	24 µM	26.4 µM		
CCCCCCn1c2cc(OC)ccc2c2ccnc(C)c21	> 50 µM	13.3 µM	14.4 µM	4.89 µM		
COc1ccc2c3ccnc(C)c3n(Cc3ccc(F)cc3)c2c1	> 50 µM	7.21 µM	> 50 µM	8.73 µM		
COc1ccc2c(c1)[nH]c1c(C)nccc12 [HARMINE]	68.3 µM	40.8 µM	59.4 µM	42.2 µM		
COc1ccc2c3ccnc(C)c3n(C(=O)c3ccccc3)c2c1	> 50 µM	7.69 µM	> 50 µM	2.81 µM		
COc1ccc2c3ccnc(C)c3n(CCCCCBr)c2c1	0.76 µM	9.34 µM	6.49 µM	4.8 µM		
COc1ccc2c3ccnc(C)c3n(C(C)=O)c2c1	> 50 µM	6.39 µM	> 50 µM	1.27 µM		
COc1ccc2c3ccnc(C)c3n(CCCc3ccccc3)c2c1					24 µM	
OCc1ccc2c(c1)c1ccccc1n2Cc1ccc(Cl)nc1						20 to 30 µM
COc1ccc2c3ccnc(C)c3n(C)c2c1	> 50 µM	9.67 µM	43.6 µM	4.97 µM		
CCCCCn1c2cc(OC)ccc2c2ccnc(C)c21	> 50 µM	20.5 µM	17.2 µM	6.37 µM		
CCCn1c2cc(OC)ccc2c2ccnc(C)c21	> 50 µM	19.4 µM	48.8 µM	9.66 µM		
